# Measured values as given in the supplement of paper PMC10307832.
# Legend:
# Experiment in all cases: relative viability (nuclei count vs DMSO), 5 days (fraction); higher = more cells survive
# Neratinib + Linsitinib = compound: CCOc1cc2ncc(C#N)c(Nc3ccc(OCc4ccccn4)c(Cl)c3)c2cc1NC(=O)/C=C/CN(C)C [Neratinib] + C[C@]1(O)C[C@@H](c2nc(-c3ccc4ccc(-c5ccccc5)nc4c3)c3c(N)nccn32)C1 [Linsitinib] (partner 1 µM)
# Outline: (§1)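 Relative viability equals treated-well nuclei counts divided by vehicle-well nuclei counts. Counts came from 4× images of lung cancer cell lines grown in 1536-well plates for 5 days after pin-tool dosing on the day after seeding. Dosing used one drug alone or a fixed anchor-drug dose plus five library-drug doses (not always all listed) in √10 steps, and values are medians of duplicate plates.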
# Neratinib + OSI-027 = compound: CCOc1cc2ncc(C#N)c(Nc3ccc(OCc4ccccn4)c(Cl)c3)c2cc1NC(=O)/C=C/CN(C)C [Neratinib] + COc1cccc2cc(-c3nc([C@H]4CC[C@H](C(=O)O)CC4)n4ncnc(N)c34)[nH]c12 [OSI-027] (partner 0.5 µM)
# Outline: as §1
# Neratinib + Alpelisib = compound: CCOc1cc2ncc(C#N)c(Nc3ccc(OCc4ccccn4)c(Cl)c3)c2cc1NC(=O)/C=C/CN(C)C [Neratinib] + Cc1nc(NC(=O)N2CCC[C@H]2C(N)=O)sc1-c1ccnc(C(C)(C)C(F)(F)F)c1 [Alpelisib] (partner 2 µM)
# Outline: as §1
# Neratinib + Lapatinib = compound: CCOc1cc2ncc(C#N)c(Nc3ccc(OCc4ccccn4)c(Cl)c3)c2cc1NC(=O)/C=C/CN(C)C [Neratinib] + CS(=O)(=O)CCNCc1ccc(-c2ccc3ncnc(Nc4ccc(OCc5cccc(F)c5)c(Cl)c4)c3c2)o1 [Lapatinib] (partner 2 µM)
# Outline: as §1
Cell Line,relative viability (Neratinib + Linsitinib; first compound 0.01 µM),relative viability (Neratinib + Linsitinib; first compound 0.03162 µM),relative viability (Neratinib + Linsitinib; first compound 0.3162 µM),relative viability (Neratinib + Linsitinib; first compound 1 µM),relative viability (Neratinib + OSI-027; first compound 0.03162 µM),relative viability (Neratinib + OSI-027; first compound 0.1 µM),relative viability (Neratinib + OSI-027; first compound 0.3162 µM),relative viability (Neratinib + OSI-027; first compound 1 µM),relative viability (Neratinib + Alpelisib; first compound 0.01 µM),relative viability (Neratinib + Alpelisib; first compound 0.03162 µM),relative viability (Neratinib + Alpelisib; first compound 0.3162 µM),relative viability (Neratinib + Lapatinib; first compound 0.01 µM),relative viability (Neratinib + Lapatinib; first compound 0.03162 µM),relative viability (Neratinib + Lapatinib; first compound 0.3162 µM),relative viability (Neratinib + Lapatinib; first compound 1 µM),relative viability (Neratinib + Linsitinib; first compound 0.1 µM),relative viability (Neratinib + OSI-027; first compound 0.01 µM),relative viability (Neratinib + Alpelisib; first compound 0.1 µM),relative viability (Neratinib + Alpelisib; first compound 1 µM),relative viability (Neratinib + Lapatinib; first compound 0.1 µM)
NCI-H2087,0.951,0.949,0.765,0.615,0.634,0.471,0.335,0.267,1.15,1.11,1.05,1.02,0.995,0.989,0.894,–,–,–,–,–
NCI-H2126,0.693,0.719,0.654,0.38,0.688,0.69,0.649,0.447,0.829,0.723,0.679,0.79,–,0.754,0.672,0.581,0.697,0.724,0.382,0.735
NCI-H2228,0.88,0.526,0.582,0.421,–,0.662,0.526,0.142,0.702,0.703,0.497,1.03,1.26,0.924,0.259,0.388,0.536,0.599,0.243,1.01
NCI-H2347,0.989,0.988,0.992,0.974,0.573,–,0.434,0.32,1.1,1.11,0.935,0.812,1.04,0.952,0.83,0.95,0.453,1.02,0.9,0.94
NCI-H2405,0.945,1.03,0.792,0.469,0.653,0.566,0.69,0.496,0.815,0.808,0.633,1.26,1.04,1.16,0.804,0.836,0.666,0.811,0.287,1.04
NCI-H3122,1.05,0.993,1.02,0.256,0.987,0.9,0.9,0.154,0.951,0.746,0.829,1.05,1.05,1.03,0.601,1.04,1.03,0.586,0.299,0.884
PC-3 [JPC-3],1.03,1.03,–,0.348,0.749,0.662,0.544,0.319,1.07,1.07,0.918,0.457,0.433,0.485,0.373,0.894,0.814,1.02,0.316,0.455
PC-14,0.979,1.1,0.639,0.216,0.987,0.798,0.177,0.0699,1.04,0.978,0.732,0.365,0.327,0.285,0.302,0.872,0.739,0.83,0.208,0.267
RERF-LC-KJ,0.943,–,0.714,0.712,–,0.477,0.434,0.326,0.842,0.841,0.577,0.78,0.923,–,0.915,0.865,0.539,0.709,0.394,0.854
SK-LU-1,1.15,1.31,0.629,0.401,0.384,0.305,0.238,0.135,1.18,1.16,0.587,0.921,0.904,0.74,0.507,0.876,0.373,0.915,0.447,0.809
SK-MES-1,–,1.09,0.507,0.395,0.687,0.538,0.305,0.185,0.914,0.988,0.384,0.512,0.479,0.435,0.364,0.888,0.566,0.661,0.207,0.393
SW 1573,0.742,0.89,0.782,0.642,0.595,0.542,0.544,0.276,0.94,–,0.577,1.27,1.13,1.15,1.16,0.778,0.685,0.591,0.515,1.24
UMC-11,0.925,1.07,0.921,0.684,0.487,0.415,0.414,0.308,0.721,0.988,0.963,1.03,1.11,0.841,0.745,0.655,0.487,0.96,0.802,0.604
